This assay concerns TGGCTT (5'-biotin labeled hairpin DNA) (DNA, hairpin) CCTTGGCTTCTTTTGAAGCCAAGG
Kind of assay: SPR, global kinetic 1:1 fit. To be noted: 50 mM Na+ (NaCl); 10 mM HEPES, 1 mM EDTA, 0.05% P20, pH 7.4, 25 °C.

The structures appear in SMILES notation.

In the case of `CN(C)CCCNC(=O)CCNC(=O)c1cc(NC(=O)c2cc(NC(=O)c3nc(NC(=O)c4cc(NC(=O)CCCNC(=O)c5cc(NC(=O)c6cc(NC(=O)c7nc(NC(=O)c8nccn8C)cn7C)cn6C)cn5C)cn4C)cn3C)cn2C)cn1C`, the KA is listed as 37 ± 7 × 10^8 M^-1.

(Values after publication PMC3567211 (2012).)
